Five molecules from patent publication US7417056B2, “5-substituted quinoline and isoquinoline derivatives, a process for their production and their use as anti-inflammatory agents” (Schering AG, priority 2004, dated 2008) can be followed below.

Data set [1] deals with secretion of the cytokine IL-8, induced by lipopolysaccharide (LPS), in the human monocyte cell line THP-1. The experiment in a line: Inhibition of LPS-induced IL-8 secretion in THP-1 cells (ELISA). The conditions noted are these: efficiency of dexamethasone = 100%. It counts as cell-based. The method, then: The concentration of the cytokines was determined in the supernatant by means of commercially available ELISA kits.
Background: In an ELISA, binding on a coated surface is turned into a signal by an enzyme label.

In data set [2] the test system is tyrosine aminotransferase (TAT). In words: Induction of tyrosine aminotransferase (TAT) in rat hepatoma cells. It counts as cell-based. The conditions noted are these: for efficiency, induction of TAT: 24 hours, efficiency of dexamethasone = 100%; for EC50: treated for 24 hours. From the text: One of the most frequent undesirable actions of a glucocorticoid therapy is the so-called “steroid diabetes” [cf. Hatz, H. J., Glucocorticoide: Immunologische Grundlagen, Pharmakologie und Therapierichtlinien [Glucocorticoids: Immunological Principles, Pharmacology and Therapy Guidelines], Wissenschaftliche Verlagsgesellschaft mbH, Stuttgart, 1998]. The reason for this is the stimulation of gluconeogenesis in the liver by induction of the enzymes that are responsible for this and by free amino acids that are produced from the degradation of proteins (catabolic action of glucocorticoids). A key enzyme of the catabolic metabolism in the liver is the tyrosine aminotransferase (TAT). The activity of this enzyme can be determined photometrically from cell cultures of treated rat hepatoma cells. The cells are treated for 24 hours with the test substances, and then the TAT activity is measured.

Data set [3] in a line: Skin atrophy in rats (skin fold thickness measurement). It counts as in vivo. The conditions noted are these: local, daily for 18 days. The method, then:
Another undesirable action that occurs especially after local therapy is the induction of a skin atrophy, which leads to the skin's loss of thickness, elasticity, and ultimately the mechanical resistance of the skin. The potential of a substance to induce skin atrophy can be determined in rats. The animals are treated for 18 days daily and locally in equieffective dosages with the test substances. By means of a skin fold thickness measurement, the reduction of the skin thickness over the treatment time can be tracked.

In the case of `Cc1ccc2c(NCC(O)(CC(C)(C)c3cc(F)cc4c3OCC4)C(F)(F)F)cccc2n1` (centres unmarked) [Example 1, 5-[4-(5-Fluoro-2,3-dihydrobenzofuran-7-yl)-2-hydroxy-4-methyl-2-trifluoromethyl-pentylamino]-2-methylquinoline], in data set [1], the “efficiency, inhibition of IL-8 secretion” value was 74%. Further, in data set [2], the “efficiency, induction of TAT” value is on record as 93%. Also, the “reduction of the skin thickness” value in data set [3] (concentration 0.1% (maximum anti-inflammatory action is achieved)) was 41%.

In the case of `Cc1ccc2c(NCC(O)(CC(C)(C)c3cc(F)cc4c3OCC4)C(F)(F)F)ccc(F)c2n1` (centres unmarked) [Example 10, 8-Fluoro-5-[4-(5-Fluoro-2,3-dihydrobenzofuran-7-yl)-2-hydroxy-4-methyl-2-trifluoromethyl-pentylamino]-2-methylquinoline], the “efficiency, inhibition of IL-8 secretion” value in data set [1] was found to be 86%. Besides, in data set [2], the “efficiency, induction of TAT” value turned out to be 92% and the EC50 is 10 nM.

In the case of `Cn1ccc2c(NCC(O)(CC(C)(C)c3cc(F)cc4c3OCC4)C(F)(F)F)cccc2c1=O` (centres unmarked) [Example 11, 5-[4-(5-Fluoro-2,3-dihydrobenzofuran-7-yl)-2-hydroxy-4-methyl-2-trifluoromethyl-pentylamino]-2-methylisoquinol-1(2H)-one], in data set [1], the “efficiency, inhibition of IL-8 secretion” value was found to be 61%. Besides, in data set [2], the “efficiency, induction of TAT” value stood at 86% and a half-maximal response (EC50) required 4 nM.

Take `CCC(=O)O[C@]1(C(=O)CCl)[C@@H](C)C[C@H]2[C@@H]3CCC4=CC(=O)C=C[C@]4(C)[C@@]3(F)[C@@H](O)C[C@@]21C` [clobetasol propionate, reference compound]: the “reduction of the skin thickness” value in data set [3] (concentration 0.01% (maximum anti-inflammatory action is achieved)) is on record as 65%.

As to `C[C@]12C=CC(=O)C=C1CC[C@@H]1[C@@H]2[C@@H](O)C[C@@]2(C)[C@H]1CC[C@]2(O)C(=O)CO` [prednisolone, reference compound], the “efficiency, inhibition of IL-8 secretion” value in data set [1] stood at 96%.

One may read the EC50 as the concentration giving half of the maximal effect. A high value points to lower potency in that assay.
